Measurements from patent publication US4450162A, “Pyrimidine derivatives and a pharmaceutical composition containing them” (Sankyo Company, Limited, priority 1981, dated 1984).
Counter-ions that a name gives are not always drawn.

Columns and labels:
effects of d-amphetamine = assay: Potentiation of d-Amphetamine effects; assay type: in vivo, male rats of the Wistar strain; details: 10 mg/kg orally, 60 min before d-amphetamine sulphate 2.5 mg/kg s.c.; observations 30-240 min; groups of 4 rats
Description: 2. Potentiation of d-Amphetamine effects
The test animals used in this experiment were male rats of the Wistar strain, each weighing from 250 to 300 g. The rats were employed in groups of 4 animals each, for each test. The test compound was employed in the form of a solution or suspension in physiological saline containing 0.3% w/v carboxymethylcellulose.
Each rat was placed in an observation cage and then given orally the solution or suspension of the test compound in an amount of 10 mg of test compound per kilogram body weight; 60 minutes later, 2.5 mg/kg of d-amphetamine sulphate were injected subcutaneously. The rats were observed 30 minutes, 60 minutes, 90 minutes, 120 minutes, 150 minutes, 180 minutes and 240 minutes after the injection of the d-amphetamine sulphate. At each observation, each animal was assigned from 0 to 5 points according to its mobility, as follows:
1 point: slight moving around;
3 points: sniffing appears;
4 points: licking appears;
5 points: biting appears.
The percentage potentiation of the effects of d-amphetamine was then calculated from the following formula: [formula] where:
P'o =total number of points from all observations of an animal to which d-amphetamine alone was administered; and
P't =total number of points from all seven observations of an animal to which both the test compound and d-amphetamine were administered.

Acute toxicity test = assay type: in vivo, male mice of the ddy strain; details: for Mortality (deaths/animals tested): 7 days observation
Description: The test animals used were male mice of the ddy strain, each weighing from 21 to 25 g. To each animal was administered orally a single dose of the test compound in the amount shown in Table 2; the animals were then placed under observation for 7 days after administration. The results are reported in Table 2 as "Mortality", where the numerator indicates the number of deaths in the observation period and the denominator indicates the number of animals tested with the particular test compound at the particular dose.

reserpine-induced ptosis = assay: Test for anti-reserpine activity (inhibition of reserpine-induced ptosis); assay type: in vivo, male mice of the ddy strain; details: Mus musculus, po, read-out: Reserpine inhibition (percentage inhibition of reserpine-induced ptosis); for inhibition in vivo at 50 mg/kg: 50 mg/kg orally, reserpine 2 mg/kg s.c., sum of observations at 90, 120 and 180 min, groups of three mice
Description: 1 Test for anti-reserpine activity
The test animals used were male mice of the ddy strain, each weighing 23-25 g. Each compound was tested on a group of three such mice. Each test compound was employed in the form of a solution or suspension in a physiological saline solution containing 0.3% w/v carboxymethylcellulose. The test employed was a partial modification of the method of Rubin et al. [J. Pharmacol. Exptl.
At each observation, each mouse was assigned from 0 to 3 points corresponding to the degree of ptosis, as follows:
0 points: eyes completely open;
1 point: eyes about one third closed;
2 points: eyes about two thirds closed;
3 points: eyes completely closed.
For each mouse, the number of points from all three observations were added together and the percentage inhibition of reserpine-induced ptosis was calculated from the following formula: [formula] in which:
Po =total number of points from three observations of an animal to which reserpine alone was administered; and
Pt =total number of points from three observations of an animal to which reserpine and the test compound were administered.

[1] = Antidepressant activity (general statement); details: in vivo

Row | SMILES | d-Amphetamine potentiation (percentage potentiation of the effects of d-amphetamine) (effects of d-amphetamine) [%] | inhibition in vivo at 50 mg/kg (reserpine-induced ptosis) [%] | other results
1 | CN(C)CCCN1c2ccccc2CCc2ccccc21 [Imipramine hydrochloride, reference compound] | 77 | 72.2 | Mortality (deaths/animals tested) (Acute toxicity test; single oral dose 500 mg/kg): 3/5; Mortality: deaths on day 3 (Acute toxicity test; single oral dose 500 mg/kg, on day 3): 1; Mortality: deaths within 1 hour (Acute toxicity test; single oral dose 500 mg/kg, within 1 hour): 2
2 | c1ccc(Nc2ncnc3c2CCC3)cc1 [Compound No. 2, 4-Anilino-6,7-dihydro-5H-cyclopenta[d]pyrimidine hydrochloride] |  | 68.7 | 
3 | Brc1ccc(Nc2ncnc3c2CCC3)cc1 [Compound No. 5, 4-(4-Bromoanilino)-6,7-dihydro-5H-cyclopenta[d]pyrimidine] |  | 75.6 | Mortality (deaths/animals tested) (Acute toxicity test; single oral dose 500 mg/kg): 0/5; Mortality (deaths/animals tested) (Acute toxicity test; single oral dose 1000 mg/kg): 0/5
4 | Cc1ncnc(Nc2ccc(C(C)C)cc2)c1C [Compound No. 47, 4-(4-Isopropylanilino)-5,6-dimethylpyrimidine] |  | 70.6 | 
5 | Cc1ncnc(Nc2ccc(Cl)cc2)c1C [Compound No. 25, 4-(4-Chloroanilino)-5,6-dimethylpyrimidine] | 75 | 61.1 | 
6 | Cc1ncnc(Nc2ccc(C(F)(F)F)cc2)c1C [Compound No. 38, 5,6-Dimethyl-4-(4-trifluoromethylanilino)pyrimidine] |  | 68.8 | 
7 | N#Cc1ccc(Nc2ncnc3c2CCC3)cc1 [Compound No. 14, 4-(4-Cyanoanilino)-6,7-dihydro-5H-cyclopenta[d]pyrimidine] |  |  | inhibition in vivo at 25 mg/kg (reserpine-induced ptosis): 85%
8 | Cc1ncnc(Nc2ccccc2)c1Br [4-anilino-5-bromo-6-methylpyrimidine] |  |  | antidepressant activity [1]: no antidepressant activity
9 | CCCCc1c(C)ncnc1Nc1ccc(Br)cc1 [compound 69, 4-(4-Bromoanilino)-5-n-butyl-6-methylpyrimidine] | 94 |  | 
10 | Cc1ncnc(Nc2ccc(I)cc2)c1C [compound 32, 4-(4-Iodoanilino)-5,6-dimethylpyrimidine] | 76 | 43.8 | 
11 | Cc1ncnc(Nc2ccc(Br)cc2)c1C [Compound No. 28, 4-(4-Bromoanilino)-5,6-dimethylpyrimidine] | 79 | 61.1 | Mortality (deaths/animals tested) (Acute toxicity test; single oral dose 1000 mg/kg): 0/5
12 | CCc1ccc(Nc2ncnc3c2CCC3)cc1 [compound 9, 4-(4-Ethylanilino)-6,7-dihydro-5H-cyclopenta[d]pyrimidine] |  | 82.3 | 
13 | FC(F)(F)c1ccc(Nc2ncnc3c2CCC3)cc1 [compound 11, 4-(4-Trifluoromethylanilino)-6,7-dihydro-5H-cyclopenta[d]pyrimidine] |  | 62.5 | 
14 | Clc1ccc(Nc2ncnc3c2CCC3)cc1 [Compound No. 3, 4-(4-Chloroanilino)-6,7-dihydro-5H-cyclopenta[d]pyrimidine] |  | 82.3 | 
